Test results reported in a compilation of properties of binary mixtures (doi:10.1016/j.molliq.2019.03.144).

Experiment: xn = mol fraction of the nth substance listed
Conditions: 96.7 kPa

c1ccncc1 + CC(=O)[O-].CC[n+]1ccn(C)c1
x2 = 0
Conditions | viscosity [mPa·s]
303.15 K | 0.843
313.15 K | 0.741
323.15 K | 0.658
333.15 K | 0.59
343.15 K | 0.533
353.15 K | 0.485

CC(=O)[O-].CC[n+]1ccn(C)c1 + c1ccncc1
viscosity [mPa·s]
Conditions | x1 = 0.166 | x1 = 0.318 | x1 = 0.411 | x1 = 0.52 | x1 = 0.649 | x1 = 0.806 | x1 = 0.898 | x1 = 1
303.15 K | 2.54 | 5.96 | – | 15.7 | 27.5 | 51 | 72.6 | 103.2
308.15 K | – | 5.29 | 8.29 | – | 22.7 | – | – | 76.1
313.15 K | 2.12 | 4.72 | 7.27 | 11.55 | 19 | 33.1 | 44.7 | 59.6
318.15 K | 1.95 | 4.22 | 6.42 | 9.99 | 16.09 | 27 | 36 | 47.4
323.15 K | 1.797 | 3.82 | 5.71 | – | 13.77 | 22.7 | – | 38.4
328.15 K | 1.671 | – | 5.11 | 7.68 | 11.88 | – | 24.5 | 31.5
333.15 K | 1.552 | – | 4.6 | 6.82 | – | 16.33 | 20.6 | –
338.15 K | 1.453 | – | 4.16 | 6.09 | 9.11 | 14.04 | 17.63 | 22
343.15 K | – | 2.65 | – | 5.47 | – | 12.35 | 15.11 | –
348.15 K | 1.278 | 2.45 | 3.46 | 4.96 | 7.18 | 10.77 | 13.26 | 16.25
353.15 K | 1.203 | – | 3.18 | 4.48 | 6.45 | 9.52 | 11.59 | 14.03
